According to US8492391B2, “Substituted 6-(2-hydroxybenzylamino)purine derivatives, their use as medicaments and compositions containing these derivatives” (Univerzita Palackeho V Olomouci, priority 2009, dated 2013):
Where two headings read alike, the source gives them in different places.

Legend:
[1] = tested on: β-adrenergic receptors; assay: Modulation of the activity of β-adrenergic receptors (isoproterenol-induced cAMP synthesis in C6 glioma); type: cell-based; conditions: rat C6 glioma, cAMP synthesis induced by 5 μM (−) isoproterenol, 30 min; for EFFECT: fold activation (modulation of the activity of β-adrenergic receptors) / EFFECT (modulation of the activity of β-adrenergic receptors): simultaneous addition
Procedure: Mechanism of action of novel compounds is presented on FIG. 2. […] Incubation was at 37° C. in a humidified atmosphere. Assays were performed in the logaritmic growth phase at a density of 2.5×10^5 cells/cm^2. Intracellular cAMP synthesis was induced by addition of 5 μM (−) isoproterenol. After 30 min incubation at 37° C. the medium was removed and the cellular amount of cAMP determined using the cAMP-enzyme immunoassay kit of Amersham. The I50 is determined from a dose-response curve in duplicate. The effect of several novel substituted 6-(2-hydroxybenzylamino)purine derivatives was measured after simultaneous addition with isoproterenol.
As P2Y1-like and A2 purinergic receptors, negatively and positively coupled to adenylate cyclase respectively, are present on rat C6 glioma. It has to be determined if the modulation of the synthesis of cAMP is due to inhibition of the activation of β-adrenergic receptors by isoproterenol are due to activation of purinergic receptors.

[2] = target: T1, CDK2/cyclin E (Homo sapiens, UniProt P24941); assay: CDK2/cyclin E kinase inhibition assay; type: biochemical; conditions: kinase inhibitory activity, 15 μM ATP, histone substrate
T1 construct: made in house; host or cells: Sf9 insect cells, baculovirus co-infection
Procedure: (§1) Selected compounds were tested for CDK1/cyclin B, CDK2/cyclin E, CDK5/p25, CDK7/cyclin H and CDK9/cyclin T inhibitory activity to determine the basic relationships between their structure and the inhibitory activity. Cdk/cyclin complexes were expressed in Sf9 cells co-infected with appropriate baculoviral construct. The cells were harvested 70 hours post infection in lysis buffer (50 mM Tris pH 7.4, 150 mM NaCl, 5 mM EDTA, 20 mM NaF, 1% Tween 20, protease inhibitors) for 30 min on ice and the soluble fraction was recovered by centrifugation at 14.000 g for […]. The protein extract was stored at −80° C. until use. The final point test system for kinase activity measurement was used to carry out experiments on the kinetics under linear conditions. […] ATP and tested compound in a final volume of 20 μl, all in reaction buffer: 50 mM Hepes pH 7.4, 10 mM MgCl2, 5 mM EGTA, 10 mM 2-glycerolphosphate, 1 mM NaF, 1 mM DTT and protease inhibitors. After 30 min, the incubations were stopped by adding 5% H3PO4 and then the proteins were separated by phosphocellulose binding. The measurement of kinase inhibition employed the digital imaging analyzer BAS 1800. The kinase activity was expressed as a percentage of maximum activity and the IC50 value was determined by graphic analysis. The kinase activity is expressed as a percentage of maximum activity (FIG. 1).

[3] = target: T2, CDK9/cyclin T (Homo sapiens, UniProt P50750); assay: CDK9/cyclin T kinase inhibition assay; type: biochemical; conditions: kinase inhibitory activity, 15 μM ATP, (YSPTSPS)3 peptide substrate
T2 construct: made in house; host or cells: Sf9 insect cells, baculovirus co-infection
Procedure: as §1

[4] = tested on: MCF7 (human breast adenocarcinoma); assay: Calcein AM cytotoxicity assay, MCF7; type: cell-based; conditions: MCF7, read-out: Cytotoxic activity IC50 (μM) MCF7
Description: (§2) Cytotoxicity of the compounds is the major property determining their anticancer effect in vivo. One of the parameters used, as the basis for cytotoxicity assays, is the metabolic activity of viable cells. For example, a microtiter assay, which uses the Calcein AM, is now widely used to quantitate cell proliferation and cytotoxicity. For instance, this assay is used in drug screening programs and in chemosensitivity testing. Because only metabolically active cells cleave Calcein AM, these assays detect viable cells exclusively. The quantity of cleaved Calcein AM corresponds to the number of vital cells in the culture. We have been using the following cell lines: MCF7 (human breast adenocarcinoma), K562 (human chronic myelogenous leukaemia), HOS (human osteogenic sarcoma), HeLa (human cervical carcinoma), HL 60 (human promyelocytic leukaemia), G 361 (human malignant melanoma), CEM (human lymphoblastoid leukaemia). All cell lines were grown in DMEM medium (Gibco BRL) supplemented with 10% (v/v) fetal bovine serum and L-glutamine and maintained at 37° C. in a humidified atmosphere with 5% CO2. For cytotoxicity assays, 10^4 cells were seeded into each well of 96 well plate, allowed to stabilize for at least 2 h and then tested compounds were added at various concentrations ranging from 100 to 0.1 μM in triplicates. Three days after drug addition Calcein AM solution (Molecular Probes) was added and let to enter the cells for 1 hour. Fluorescence of viable cells was quantified using Fluoroskan Ascent (Microsystems).

[5] = tested on: K562 (human chronic myelogenous leukaemia); assay: Calcein AM cytotoxicity assay, K562; type: cell-based; conditions: read-out: Cytotoxic activity IC50 (μM) K562
Description: as §2

[6] = tested on: HOS (human osteogenic sarcoma); assay: Calcein AM cytotoxicity assay, HOS; type: cell-based; conditions: read-out: Cytotoxic activity IC50 (μM) HOS
Description: as §2

[7] = tested on: p53; assay: p53-dependent transcription, β-galactosidase reporter in Arn8 cells; type: cell-based, human; set-up: key to p53 (effect): induction of p53 protein: ++: very strong; +: weak; −: no effect; conditions: for p53 (effect): induction of p53 protein: Arn8 cells stable transfected with a β-galactosidase reporter gene; for p53 (peak concentration in μM): Arn8 cells, concentration inducing maximum of β-galactosidase activity
Description: Protein p53, accumulated in nuclei upon treatment by the compounds, then leads to trans-activation of natural cell cycle inhibitor p21^WAF1, further blocking the cell cycle. […] This allows qualitative as well as quantitative measurement of CDK inhibitors-induced p53 transcriptional activity via β-galactosidase assay. Then, the effect will be verified in treated cells by immunoblotting of proteins expressed under the control of p53. β-galactosidase activity of human melanoma cell line Arn8 was determined as described. […] Alternatively, β-galactosidase activity was quantified by measuring fluorescence of methylumbelliferyl-β-D-galactopyranoside cleavage product. Cell lines established from the human breast carcinoma (MCF-7) and the human melanoma (Arn8) cell lines were cultured in Dubecco's Modified Eagle Medium (DMEM) supplemented with 10% foetal bovine serum.
Effects of prepared compounds on activation of p53 protein were analysed in human melanoma cell line Arn8. […] The total β-galactosidase activity in Arn8 cells was quantified using a fluorimetric assay.

T2 sequence (P50750 whole entry, species assumed): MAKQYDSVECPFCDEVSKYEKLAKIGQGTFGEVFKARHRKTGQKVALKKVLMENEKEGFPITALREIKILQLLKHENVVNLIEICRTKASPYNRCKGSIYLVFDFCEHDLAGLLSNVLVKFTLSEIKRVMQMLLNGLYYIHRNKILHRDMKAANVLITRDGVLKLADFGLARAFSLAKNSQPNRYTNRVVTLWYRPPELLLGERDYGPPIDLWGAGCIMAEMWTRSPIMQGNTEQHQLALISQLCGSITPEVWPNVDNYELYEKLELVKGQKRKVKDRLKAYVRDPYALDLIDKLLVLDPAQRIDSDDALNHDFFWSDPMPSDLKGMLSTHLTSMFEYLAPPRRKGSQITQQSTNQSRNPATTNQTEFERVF
T2 sequence (O60563 whole entry partner, species assumed): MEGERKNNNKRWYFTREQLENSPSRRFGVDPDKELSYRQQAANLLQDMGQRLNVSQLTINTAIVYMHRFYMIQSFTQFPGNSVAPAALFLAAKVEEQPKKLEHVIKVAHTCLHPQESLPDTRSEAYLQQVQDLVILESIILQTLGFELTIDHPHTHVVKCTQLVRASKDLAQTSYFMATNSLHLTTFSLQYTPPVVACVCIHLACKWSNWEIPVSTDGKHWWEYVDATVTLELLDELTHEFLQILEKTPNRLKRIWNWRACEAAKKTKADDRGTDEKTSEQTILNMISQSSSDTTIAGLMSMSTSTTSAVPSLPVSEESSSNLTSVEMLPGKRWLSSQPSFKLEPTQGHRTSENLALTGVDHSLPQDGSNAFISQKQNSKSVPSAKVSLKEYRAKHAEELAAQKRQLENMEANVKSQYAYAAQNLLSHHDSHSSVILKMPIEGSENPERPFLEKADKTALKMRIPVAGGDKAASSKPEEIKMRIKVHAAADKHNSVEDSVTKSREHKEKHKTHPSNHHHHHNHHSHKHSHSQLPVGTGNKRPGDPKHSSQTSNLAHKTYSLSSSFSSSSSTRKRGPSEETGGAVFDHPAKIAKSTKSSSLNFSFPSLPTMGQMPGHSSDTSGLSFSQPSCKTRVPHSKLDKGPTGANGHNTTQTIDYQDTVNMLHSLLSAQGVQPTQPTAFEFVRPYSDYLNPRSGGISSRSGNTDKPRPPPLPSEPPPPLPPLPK

IC50 [2] [µM]	IC50 [3] [µM]	IC50 (μM) (modulation of the activity of β-adrenergic receptors) [1]	EFFECT (modulation of the activity of β-adrenergic receptors) [1]	IC50 [1] [µM]	SMILES	EFFECT: fold activation (modulation of the activity of β-adrenergic receptors) [1]	IC50 ([4]; Homo sapiens) [µM]	IC50 ([5]; Homo sapiens) [µM]	IC50 ([6]; Homo sapiens) [µM]	p53 (effect): induction of p53 protein [7]	p53 (peak concentration in μM) [7] [µM]	IC50 [4] [µM]	IC50 [5] [µM]	IC50 [6] [µM]
		inactive	inactive		Cn1cnc2c(NCc3ccccc3)nc(NCCO)nc21 [OC]							133	163	
			inhibition	4 ± 1	COc1cccc(CNc2nc(NC3CCC(N)CC3)nc3c2ncn3C(C)C)c1O (mixture of isomers) [Compound 126, (E/Z)—N^2-(4-aminocyclohexyl)-N^6-(2-hydroxy-3-methoxybenzyl)-9-isopropyl-9H-purin-2,6-diamine]					++	11.0			
0.02			inhibition	2	COc1cccc(CNc2nc(NC3CCCCC3N)nc3c2ncn3C(C)C)c1O (stereo not drawn) [Compound 125]		3.2	10.9		++	10.0			

Second part, the compound before the results:

SMILES	IC50 [2] [µM]	IC50 [3] [µM]	IC50 (μM) (modulation of the activity of β-adrenergic receptors) [1]	EFFECT (modulation of the activity of β-adrenergic receptors) [1]	IC50 [1] [µM]	EFFECT: fold activation (modulation of the activity of β-adrenergic receptors) [1]	IC50 ([4]; Homo sapiens) [µM]	IC50 ([5]; Homo sapiens) [µM]	IC50 ([6]; Homo sapiens) [µM]	p53 (effect): induction of p53 protein [7]	p53 (peak concentration in μM) [7] [µM]	IC50 [4] [µM]	IC50 [5] [µM]	IC50 [6] [µM]
CC(C)C(CO)Nc1nc(NCc2cc(O)ccc2O)c2ncn(C(C)C)c2n1 (stereo not drawn) [Compound 124]						2.1-fold activation								
CCC(CO)Nc1nc(NCc2cc(F)ccc2O)c2ncn(C(C)C)c2n1 (stereo not drawn) [Compound 89]	0.05	0.02				1.9-fold activation	3.2	14.7	5.3	++	6.0			
CC(C)n1cnc2c(NCc3cc(Cl)ccc3O)nc(NCC(C)(C)O)nc21 [Compound 81]	0.03	0.02				1.7-fold activation								
CCC(CO)Nc1nc(NCc2ccc(O)cc2O)c2ncn(C(C)C)c2n1 (stereo not drawn) [Compound 119]	0.08	0.05				1.6-fold activation	4.3	13	8.1	+	12.0			
CC(C)n1cnc2c(NCc3cc(F)ccc3O)nc(NC3CCCCC3N)nc21 (stereo not drawn) [Compound 86]	0.04	0.02		inhibition	8 ± 2		1.8	7.6	3.2					
CC(C)C(CO)Nc1nc(NCc2cc(Cl)ccc2O)c2ncn(C(C)C)c2n1 (stereo not drawn) [Compound 80]	0.06	0.05				1.8-fold activation								
CCC(CO)Nc1nc(NCc2cc(C)ccc2O)c2ncn(C(C)C)c2n1 (stereo not drawn) [Compound 107]	0.02						6.6	24.9	18	++	6.0			
CCC(CO)Nc1nc(NCc2cc(Cl)ccc2O)c2ncn(C(C)C)c2n1 (stereo not drawn) [Compound 79]	0.07	0.04				1.5-fold activation	3.5	11.9	5.3	++	8.0			
Cc1cccc(CNc2nc(NC3CCCCC3N)nc3c2ncn3C(C)C)c1O (stereo not drawn) [Compound 105]				inhibition	12 ± 4									
Cc1ccc(O)c(CNc2nc(NC3CCC(N)CC3)nc3c2ncn3C(C)C)c1 (stereo not drawn) [Compound 106]				inhibition	7 ± 2									
CCC(CO)Nc1nc(NCc2cc(O)cc(O)c2)c2ncn(C(C)C)c2n1 (stereo not drawn) [Compound 123]						1.7-fold activation				+	11.0	3.2	5.3	3.7
